Data from patent US10968457B2, “Drug-inducible promoter and method of inducting gene expression using the same” (TOYOTA JIDOSHA KABUSHIKI KAISHA, priority 2015, dated 2021).

What was measured:
[1] = test system: sugarcane variety Q165; assay: RNAseq expression analysis of leaves before and after probenazole treatment; type: in vivo; settings: 8% Oryzemate granules, 20 g/4 liters of soil, about 60 days after planting, selected gene
Excerpt: In Example 1, at the outset, a sugarcane variety Q165 was subjected to drug treatment with probenazole (8% Oryzemate granules, Meiji Seika Pharma Co., Ltd., 20 g/4 liters of soil) approximately 60 days after it had been planted. The leaves that had expanded from the top were sampled before and after the treatment, and total RNA was extracted using the RNeasy Plant Mini Kit (QIAGEN).
Subsequently, the obtained total RNA was subjected to RNAseq expression analysis (Illumina HiSeq Sequencing, both-ends analysis), so as to obtain read data set. With the use of the assembler (Velvet version 1.2.08), the read data were reassembled into contig sequence information. The contig sequence information resulting from such reassembly was compared with each RNA sequence, and mapping data were obtained using a mapping program (Bowtie version 1.0.0). The resulting data were designated as the original data for RNAseq analysis.
On the basis of the EST sequence, two types of gene expression regulatory DNAs located in the 5′ upstream region of the selected gene were obtained by the Straight Walk method developed by BEX Co., Ltd. Such gene expression regulatory DNAs are drug-inducible promoters whose transcription activity is activated in the presence of a drug, such as probenazole. […]

[2] = test system: drug-inducible promoters, tp1 and tp2; assay: Real-time PCR of RNA levels in recombinants carrying tp1 or tp2 expression vectors, with and without probenazole treatment; type: in vivo, sugarcane variety Q165; settings: Recombinants 1 to 8; Oryzemate granules (8% probenazole), 20 g/4 liters of soil; leaves sampled 0, 7 and 14 days after treatment; FIG. 7
Description: In Example 2, transcription promoting activity of the two types of drug-inducible promoters, tp1 and tp2, isolated in Example 1 was examined in the presence and in the absence of probenazole.
With the use of the tp1-carrying expression vector and the tp2-carrying expression vector constructed in the manner described above, Recombinants 1 to 8 were prepared. Recombinants 1 to 7 were prepared with the use of the tp1-carrying expression vector, and Recombinant 8 was prepared with the use of the tp2-carrying expression vector.
Recombinants 1 to 8 prepared in the manner described above were treated with Oryzemate granules (8% probenazole, Meiji Seika Pharma Co., Ltd., 20 g/4 liters of soil), and leaves were sampled therefrom 0 days after drug treatment (i.e., immediately before the treatment), 7 days after drug treatment, and 14 days after drug treatment. The RNA levels of the recombinants were quantified using the AB17500 real-time PCR apparatus (Applied BioSystems) in accordance with the SYBR Green method. A comparative example shown in FIG. 7 concerns a recombinant prepared with the use of ecc0002-Hd3a-pIG121-Hm. The control example shown in FIG. 7 concerns the Q165 wild-type sugarcane variety.

In the case of `C=CCOC1=NS(=O)(=O)c2ccccc21` [probenazole], the “increase in expression levels of EST sequence, drug treatment group versus non-treatment group” value [1] is reported as at least 100 fold and the “degree of gene expression induction” value [2] is reported as at least 3 times.
